Data reported in EP0589484A1, “1,2-Ethanediol derivative and salt thereof, process for producing the same, and cerebral function-improving agent comprising the same” (TOYAMA CHEMICAL CO., LTD., priority 1989, dated 1990).
Structures can show the parent of a compound that is named as a salt.

test system: ddY female mouse; assay: Effect of test compound on hypoxia (antihypoxic activity); format: in vivo; conditions: po, 100 mg/kg orally, placed in chamber (4% oxygen, 96% nitrogen) after 1 hour from the administration, survival time relative to control, read-out: Antihypoxic activity (%)
Description: A test compound dissolved in physiological saline (100 mg/kg) was orally administered to a ddY female mouse (5-6 weeks old, each group consisting of 10 mice). After 1 (or 30 minutes*) hour from the administration, each mouse was placed in a 300-ml glass chamber, and a gas mixture consisting of 4% of oxygen and 96% of nitrogen was passed through the chamber at a rate of 5 liters/min. A time from the start of gas passing to the death of each mouse was measured.
To a control mice group was orally administered only physiological saline.
The antihypoxic activity of the test compound was calculated from the following formula: [formula]

In order of falling response vs control in vivo at 100 mg/kg:
1. CN(C)CCOCC(O)c1ccc(F)c2ccccc12 (stereo not shown) [compound 231]  246%
2. Cn1cncc1COCC(O)c1ccc(OCc2ccccc2)cc1 (stereo not shown) [compound 215, 1-(4-Benzyloxyphenyl)-2-[(1-methylimidazol-5-yl)-methoxy]ethanol]  197%
3. OC(COCC1CNCCO1)c1cccc(Cl)c1 (stereo not shown) [compound 153]  185%
4. CN(C)CCOCC(O)c1ccc(-c2ccccc2)cc1 (stereo not shown) [compound 56]  182%
5. Cc1cccc(C(O)COCC2CNCCO2)c1 (stereo not shown) [compound 152]  180%
6. OC(COCCN1CCN(C(c2ccccc2)c2ccccc2)CC1)c1ccccc1 (stereo not shown) [compound 167]  165%
7. CCN(CC)CCOCC(O)c1cccc2ccccc12 (stereo not shown) [compound 243]  159%
8. CN(C)CCOCC(O)c1ccc(OCc2ccc(Cl)cc2)cc1 (stereo not shown) [compound 49]  151%
9. Cc1ccc(C(O)COCCN(C)C)c2ccccc12 (stereo not shown) [compound 232]  150%
10. COC(COCCN(C)C)c1ccc(OCc2ccccc2)cc1 (stereo not shown) [compound 213]  149%
11. OC(COCCN1CCCCC1)c1cccc(Cl)c1 (stereo not shown) [compound 36]  139%
12. CC(=O)N(C)CCOCC(O)c1ccccc1 (stereo not shown) [compound 181]  132%
13. OC(COCCN1CCCCC1)c1ccc2ccccc2c1 (stereo not shown) [compound 238]  123%

same assay, conditions: po, 0.5 h, 100 mg/kg orally, placed in chamber (4% oxygen, 96% nitrogen) after 30 minutes from the administration (values marked *), survival time relative to control, read-out: Antihypoxic activity (%)

In order of rising response vs control in vivo at 100 mg/kg:
1. OC(COCc1cccnc1)c1ccc2occc2c1 (stereo not shown) [compound 339, 1-(benzo[b]furan-5-yl)-2-(pyridin-3-yl-methxoy)ethanol]  131%
2. OC(COCCNC12CC3CC(CC(C3)C1)C2)c1ccc2sccc2c1 (stereo not shown) [compound 353]  132%
3. OC(COCc1ccncc1)c1ccccc1 (stereo not shown) [compound 123]  140%
4. NCCOCC(O)c1ccccc1 (stereo not shown) [compound 102]  140%
5. OC(COCc1ccccn1)c1ccccc1 (stereo not shown) [compound 122]  142%
6. CC(COCC(O)c1ccc2sccc2c1)N(C)C (stereo not shown) [compound 338]  144%
7. CC(=O)OC(COCc1cccnc1)c1ccccc1 (stereo not shown) [compound 188]  144%
8. CC(CN(C)C)OCC(O)c1cccc2ccccc12 (stereo not shown) [compound 250]  145%
9. OC(COCc1cccnc1)c1ccc(OCc2ccccc2)cc1 (stereo not shown) [compound 121]  149%
10. CN1CCC=C(COCC(O)c2cccc3ccccc23)C1 (stereo not shown) [compound 271]  150%
11. CC(=O)OC(COCCN(C)C)c1ccc(-c2ccccc2)cc1 (stereo not shown) [compound 187]  153%
12. CN(C)CCOCC(O)c1ccc2[nH]ccc2c1 (stereo not shown) [compound 365]  155%
13. O[C@H](COC[C@@H]1CNCCO1)c1ccccc1 [compound 218, (1S,2'S)-1-phenyl-2-[(morpholin-2-yl)methoxy]ethanol oxalate]  157%
14. O[C@H](COCc1cccnc1)c1ccccc1 [compound 129]  158%
15. OC(COCC1CNCCO1)c1ccc2sccc2c1 (stereo not shown) [compound 343]  160%
16. Cc1cccc([C@@H](O)COCCN(C)C)c1 [compound 104]  160%
17. OC(COCc1cccnc1)c1cccc(Oc2ccccc2)c1 (stereo not shown) [compound 139]  162%
18. OC(COCc1c[nH]cn1)c1ccc(OCc2ccccc2)cc1 (stereo not shown) [compound 137]  163%
19. OC(COCc1cccnc1)c1ccc2sccc2c1 (stereo not shown) [compound 340]  163%
20. COc1cc(C(O)COCCN(C)C)ccc1OCc1ccccc1 (stereo not shown) [compound 98]  164%
21. COc1ccc(C(O)COCc2cccnc2)cc1 (stereo not shown) [compound 131]  167%
22. CN(C)CCOCC(O)c1ccc(C(C)(C)C)cc1 (stereo not shown) [compound 19]  168%
23. OC(COCCN1CCOCC1)c1ccc(OCc2ccccc2)cc1 (stereo not shown) [compound 100]  171%
24. Cc1cccc(C(O)COCc2cccnc2)c1 (stereo not shown) [compound 125]  172%
25. CN(C)CCOCC(O)c1ccc(OCc2ccccn2)cc1 (stereo not shown) [compound 84]  175%
26. CN(C)CCOCC(O)c1c(Cl)cccc1Cl (stereo not shown) [compound 96]  176%
27. CN1CCN(CCOCC(O)c2ccc(OCc3ccccc3)cc2)CC1 (stereo not shown) [compound 195]  176%
28. OC(COCCNC1CC1)c1ccc(OCc2ccccc2)cc1 (stereo not shown) [compound 204]  176%
29. CC(=O)OC(COCCN(C)C)c1cccc(C)c1 (stereo not shown) [compound 180]  176%
30. CN(CCOCC(O)c1ccc(OCc2ccccc2)cc1)C1CC1 (stereo not shown) [compound 203]  177%
31. CC(C)(C)NCCOCC(O)c1ccccc1 (stereo not shown) [compound 211]  177%
32. Cc1ccccc1C(O)COCCN(C)C (stereo not shown) [compound 14]  184%
33. OC(COCc1cccnc1)c1ccc2ccccc2c1 (stereo not shown) [compound 272]  185%
34. CN1CCC=C(COCC(O)c2ccc3sccc3c2)C1 (stereo not shown) [compound 345]  185%
35. NCCOCC(O)c1ccc2sccc2c1 (stereo not shown) [compound 357, 1-(benzo[b]thiophen-5-yl)-2-(2-aminoethoxy)ethanol 1/2 fumarate]  189%
36. CN(C)CCOCC(O)c1ccc2c(c1)CCC2 (stereo not shown) [compound 252]  190%
37. Cc1cc(C)cc(C(O)COCCN(C)C)c1 (stereo not shown) [compound 27]  201%
38. O[C@@H](COCC1CNCCS1)c1ccccc1 (stereo partly shown) [compound 134]  201%
39. CN1CCN(CCOCC(O)c2ccc3sccc3c2)CC1 (stereo not shown) [compound 349]  209%
40. OC(COCc1c[nH]cn1)c1ccc2sccc2c1 (stereo not shown) [compound 358, 1-(benzo[b]thiophen-5-yl)-2-[(imidazolyl)methoxy]ethanol]  211%
41. CN(C)CCOCC(O)c1cccc2ccsc12 (stereo not shown) [compound 320]  212%
42. OC(COCCCN1CCCCC1)c1ccc2sccc2c1 (stereo not shown) [compound 387]  228%
43. CN(C)CCOCC(O)c1ccc2c(c1)CCS2 (stereo not shown) [compound 332]  230%
44. Cc1cccc(C(O)COCCCCN(C)C)c1 (stereo not shown) [compound 23]  241%
45. OC(COCCN1CCN(Cc2ccccc2)CC1)c1ccc2occc2c1 (stereo not shown) [compound 394, dihydrochloride]  241%
46. Cc1cccc(C(O)COCCNC2CC2)c1 (stereo not shown) [compound 208]  242%
47. OC(COCCN1CCCCC1)c1ccc2sccc2c1 (stereo not shown) [compound 330]  242%
48. OC(COCCNC1CC1)c1ccc2sccc2c1 (stereo not shown) [compound 348]  251%
49. CN1CCCC(COCC(O)c2ccc3sccc3c2)C1 (stereo not shown) [compound 344]  268%
50. OC(COCCCNC1CC1)c1ccc2sccc2c1 (stereo not shown) [compound 383]  293%

same assay, conditions: po, 0.5 h, read-out: Antihypoxic activity (%)

In order of falling response vs control in vivo at 100 mg/kg:
1. CCN(CC)CCOCC(O)c1ccc2sccc2c1 (stereo not shown) [compound 388, 2-[2-(N,N-diethylamino)ethoxy]-1-(benzo[b]thiophen-5-yl)ethanol hydrochloride]  213%
2. CNCCOCC(O)c1ccc2sccc2c1 (stereo not shown) [compound 347, 1-(benzo[b]thiophen-5-yl)-2-(N-methylaminoethoxy)ethanol hydrochloride]  162%
3. CN(C)CCOCC(O)c1cccc2cccc([N+](=O)[O-])c12 (stereo not shown) [compound 289, 2-[2-(N,N-dimethylamino)ethoxy]-1-(8-nitro-1-naphthyl)ethanol oxalate]  157%
4. CN1CCN(CCOCC(O)c2cccc3ccccc23)CC1 (stereo not shown) [compound 259, 2-[2-(4-methylpiperazin-1-yl)ethoxy]-1-(1-naphthyl)ethanol dihydrochloride]  155%

same assay, conditions: po, 1 h, read-out: Antihypoxic activity (%)

`CNCCOCC(O)c1cccc2ccccc12` (stereo not shown) [compound 261, 2-[2-(N-methylamino)ethoxy]-1-(1-naphthyl)ethanol hydrochloride] was tested, and the response vs control in vivo at 100 mg/kg was 126%.

test system: ddY male mice; assay: Acute toxicity; format: in vivo, mouse; conditions: 50 mg/kg intravenously, group of 3 ddY male mice
Source text: A test compound dissolved in physiological saline was intravenously administered to a group of 3 ddY male mice (5-6 weeks old) to examine the acute toxicity of the test compound.

In the case of `Cc1cccc(C(O)COCCC2CCNCC2)c1` (stereo not shown) [compound 176], the Acute toxicity is reported as “no death case”.
`CN(CCOCC(O)c1ccccc1)C(=O)C1CCC(=O)N1` (stereo not shown) [compound 160] was tested, and the Acute toxicity was “no death case”.
For `OCC1CCCN1CCOCC(O)c1ccccc1` (stereo not shown) [compound 159], the Acute toxicity was “no death case”.
For `CN(C)CCOCC(O)c1cccnc1` (stereo not shown) [compound 315], the Acute toxicity was “no death case”.
In the case of `CC(=O)OC(COCCN1CCOCC1)c1cccc(C)c1` (stereo not shown) [compound 178, 1-acetoxy-1-(3-methylphenyl)-2-[2-(morpholin-4-yl)ethoxy]ethane], the Acute toxicity is reported as “no death case”.
`Cc1cccc(C(O)COCCN2CCCC2=O)c1` (stereo not shown) [compound 25] was tested, and the Acute toxicity was “no death case”.
With `CN(C)CCOCC(O)c1ccc(O)cc1.Cl` (stereo not shown) [Compound No. 170, 1-(4-hydroxyphenyl)-2-[2-(N,N-dimethylamino)ethoxy]ethanol hydrochloride] the Acute toxicity was “no death case”.
`OC(COCCN1CCOCC1)c1ccccc1` (stereo not shown) [compound 8] was tested, and the Acute toxicity was “no death case”.
